Experiments:
fowl roundworms = assay: Anthelmintic activity; type: in vivo; settings: parasite not named at this place; stated in words only
[1] = Classification by basicity, acidity or neutrality; type: physicochemical
Text: (§1) Physico-chemical properties of PF […] substance, PF […] substance and PF […] substance thus obtained are given below: […]

[2] = Solubilities (physico-chemical properties); type: physicochemical
Text: as §1

## CC(C)C[C@H]1C(=O)O[C@H](C)C(=O)N(C)[C@@H](CC(C)C)C(=O)O[C@H](C)C(=O)N(C)[C@@H](CC(C)C)C(=O)O[C@H](C)C(=O)N(C)[C@@H](CC(C)C)C(=O)O[C@H](C)C(=O)N1C [PF 1022F substance]
Fowl roundworms
  Anthelmintic activities (general statement): having anthelmintic activities
[1]
  Classification by basicity, acidity or neutrality: Neutral substance
[2]; chloroform, acetone, ethyl acetate, methanol and dimethylsulfoxide
  Solubility in organic solvents: Soluble
[2]; solvent: n-hexane
  Solubility in n-hexane: Insoluble
[2]; solvent: water
  Solubility in water: Insoluble

From patent US6043058A, “Preparation of cyclic depsipeptide compounds and a novel cyclic depsipeptide” (Maiji Seika Kaisha Ltd., priority 1996, dated 2000)
